Reference: patent publication US9938257B2 (Sunshine Lake Pharma Co., Ltd., priority 2015, dated 2018)

Legend:
[1] = Compound stability in human liver microsomes; format: in vitro ADME; conditions: pH 7.4; for half-life at 5 μM: human liver microsomes 0.5 mg protein/mL, compound 5 μM, NADPH 1.0 mM, 37° C., read-out: Human T1/2; for CLint scaled at 5 μM: human liver microsomes, in vivo CLint extrapolated
Protocol: (§1) Human or rat liver microsomes incubations were conducted in duplicate in polypropylene tubes. The typical incubation mixtures consisted of human or rat liver microsomes (0.5 mg protein/mL), compounds of interest (5 μM) and NADPH (1.0 mM) in a total volume of 200 μL potassium phosphate buffer (PBS, 100 mM, pH 7.4). Compounds were dissolved in DMSO and diluted with PBS such that the final concentration of DMSO was 0.05%. The enzymatic reactions were commenced with the addition of protein after a 3-min preincubation and incubated in a water bath open to the air at 37° C. Reactions were terminated at various time points (0, 5, 10, 15, 30, 60 min) by adding equal volume of ice-cold acetonitrile. The samples were stored at −80° C. until LC/MS/MS assays.
(§2) The concentrations of compounds in the incubation mixtures of human or rat liver microsomes were determined by a LC/MS/MS method. The ranges of the linearity in the concentration range were determined for each tested compounds.
(§3) A parallel incubation was performed using denatured microsomes as the negative control, and reactions were terminated at various time points (0, 15, 60 min) after incubation at 37° C.
(§4) Dextromethorphan (70 μM) was selected as the positive control, and reactions were terminated at various time points (0, 5, 10, 15, 30, 60 min) after incubation at 37° C. Both positive and negative control samples were included in each assay to ensure the integrity of the microsomal incubation system.
(§5) The concentrations of compounds in human or rat liver microsome incubations were plotted as a percentage of the relevant zero time point control for each reaction. The in vivo CLint were extrapolated (ref.: Naritomi, Y.; Terashita, S.; Kimura, S.; Suzuki, A.; Kagayama, A.; and Sugiyama, Y.; Prediction of human hepatic clearance from in vivo animal experiments and in vitro metabolic studies with liver microsomes from animals and humans. Drug Metab. Dispos., 2001, 29: 1316-1324).

[2] = Compound stability in rat liver microsomes; format: in vitro ADME; conditions: pH 7.4; for half-life at 5 μM: rat liver microsomes 0.5 mg protein/mL, compound 5 μM, NADPH 1.0 mM, 37° C., read-out: Rat T1/2; for CLint scaled at 5 μM: rat liver microsomes, in vivo CLint extrapolated
Protocol: as §1, §2, §3, §4, §5

[3] = Pharmacokinetics after intravenous and oral administration in rats; format: in vivo; conditions: for Clearance (CL) after iv dosing / AUC(0-t) / half-life / Vd: dose 1 mg/kg, iv dosing; for F: oral bioavailability, iv dose 1 mg/kg; for AUC(0-t) / half-life / Vd: rat, plasma; for Vd: read-out: Vss
Protocol: The compounds disclosed herein are assessed in pharmacokinetic studies in mice, rats, dogs or monkeys. The compounds are administered as a water solution, 2% HPMC+1% TWEEN®80 in water solution, 5% DMSO+5% solutol in saline, 4% MC suspension or capsule. For the intravenous administration, the animals are generally given at 0.5, 1 or 2 mg/kg dose. For the oral (p.o.) dosing, mice and rats are generally given 0.5, 1, 5 or 10 mg/kg dose, and dogs and monkeys are generally given 10 mg/kg dose. The blood samples (0.3 mL) are drawn at 0.25, 0.5, 1.0, 2.0, 3.0, 4.0, 6.0, 8.0, 12 and 24 h time points or 0.083, 0.25, 0.5, 1.0, 2.0, 4.0, 6.0, 8.0 and 24 h time points and centrifuged at 3,000 or 4000 rpm for 2 to 10 min. The plasma solutions are collected, and stored at −20° C. or −70° C. until analyzed by LC/MS/MS as described above.

JAK1 (h) = JAK1 (h) (Homo sapiens (Human), UniProt P23458); experiment: JAK1 (h) kinase activity assay; format: biochemical
Sequence of JAK1 (h) (P23458 whole entry): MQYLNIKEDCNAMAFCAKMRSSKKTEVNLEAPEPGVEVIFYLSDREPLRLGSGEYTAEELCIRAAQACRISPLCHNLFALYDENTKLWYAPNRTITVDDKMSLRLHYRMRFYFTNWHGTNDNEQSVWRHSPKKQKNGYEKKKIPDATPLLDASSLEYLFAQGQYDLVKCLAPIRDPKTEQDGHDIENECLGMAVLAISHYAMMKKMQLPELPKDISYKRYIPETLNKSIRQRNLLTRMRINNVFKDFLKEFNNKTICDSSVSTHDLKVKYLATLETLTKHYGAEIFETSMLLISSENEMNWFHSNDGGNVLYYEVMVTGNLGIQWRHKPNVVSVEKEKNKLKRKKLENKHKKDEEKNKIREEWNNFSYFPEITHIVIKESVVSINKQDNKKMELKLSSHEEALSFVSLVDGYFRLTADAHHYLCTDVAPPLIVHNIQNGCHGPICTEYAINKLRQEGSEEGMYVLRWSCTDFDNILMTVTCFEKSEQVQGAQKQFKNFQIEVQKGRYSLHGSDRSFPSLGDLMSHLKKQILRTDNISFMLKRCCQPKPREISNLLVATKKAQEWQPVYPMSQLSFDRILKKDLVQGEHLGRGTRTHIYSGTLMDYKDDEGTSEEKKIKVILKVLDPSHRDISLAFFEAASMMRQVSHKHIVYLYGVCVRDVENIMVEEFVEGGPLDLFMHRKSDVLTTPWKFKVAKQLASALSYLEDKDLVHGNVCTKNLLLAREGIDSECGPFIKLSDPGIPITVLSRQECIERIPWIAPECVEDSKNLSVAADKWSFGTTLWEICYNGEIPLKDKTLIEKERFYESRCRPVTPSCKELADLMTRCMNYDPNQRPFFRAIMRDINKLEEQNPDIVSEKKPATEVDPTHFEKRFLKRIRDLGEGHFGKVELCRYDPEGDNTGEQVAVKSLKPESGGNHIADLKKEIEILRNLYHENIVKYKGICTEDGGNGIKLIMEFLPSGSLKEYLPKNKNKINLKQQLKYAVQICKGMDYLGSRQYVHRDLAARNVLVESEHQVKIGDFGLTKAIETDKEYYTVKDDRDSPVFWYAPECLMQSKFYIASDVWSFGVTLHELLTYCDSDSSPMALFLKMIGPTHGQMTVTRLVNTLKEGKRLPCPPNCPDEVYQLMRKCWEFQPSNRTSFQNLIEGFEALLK
Protocol: (§6) The above assay procedure can be used to determine the IC50 for inhibition and/or the inhibition constant, Ki. The IC50 is defined as the concentration of compound required to reduce the enzyme activity by 50% under the condition of the assay. The IC50 value is estimated by preparing a 10 point curve using a ½ log dilution series (for example, a typical curve may be prepared using the following compound concentrations: 3 μM, 1 μM, 0.3 μM, 0.1 μM, 0.03 μM, 0.01 μM, 0.003 μM, 0.001 μM, 0.0003 μM and 0 μM).
(§7) JAK1 (h) is incubated with 20 mM Tris/HCl pH 7.5, 0.2 mM EDTA, 500 μM GEEPLYWSFPAKKK, 10 mM MgAcetate and [γ-^33P-ATP] (specific activity approx. 500 cpm/pmol, concentration as required). The reaction is initiated by the addition of the MgATP mix. After incubation for 40 minutes at room temperature, the reaction is stopped by the addition of 3% phosphoric acid solution. 10 μL of the reaction is then spotted onto a P30 filtermat and washed three times for 5 minutes in 75 mM phosphoric acid and once in methanol prior to drying and scintillation counting.
(§8) The kinase assays described herein were performed at Millipore UK Ltd, Dundee Technology Park, Dundee DD2 1SW, UK.

Aurora-A (h) = Aurora-A (h) (Homo sapiens (Human), UniProt O14965); experiment: Aurora-A (h) kinase activity assay; format: biochemical
Sequence of Aurora-A (h) (O14965 whole entry): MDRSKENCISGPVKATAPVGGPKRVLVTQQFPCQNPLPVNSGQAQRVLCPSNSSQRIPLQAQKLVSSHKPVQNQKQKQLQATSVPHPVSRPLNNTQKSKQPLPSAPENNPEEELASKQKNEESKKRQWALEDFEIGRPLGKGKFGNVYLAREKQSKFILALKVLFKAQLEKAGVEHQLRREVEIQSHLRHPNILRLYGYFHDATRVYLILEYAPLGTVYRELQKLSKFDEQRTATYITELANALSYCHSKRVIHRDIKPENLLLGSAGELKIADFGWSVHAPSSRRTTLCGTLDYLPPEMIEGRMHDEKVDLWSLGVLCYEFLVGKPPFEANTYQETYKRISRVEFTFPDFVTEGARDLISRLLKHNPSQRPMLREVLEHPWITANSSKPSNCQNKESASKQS
Protocol: as §6
as §7, with “Aurora-A (h)” for “JAK1 (h)”, “with 8” for “with 20”, “mM MOPS” for “mM Tris/HCl”, “pH 7.0,” for “pH 7.5,”, “EDTA, 200” for “EDTA, 500”, “μM LRRASLG (Kemptide),” for “μM GEEPLYWSFPAKKK,”
as §8

Aurora-B (h) = Aurora-B (h) (Homo sapiens (Human), UniProt Q96GD4); experiment: Aurora-B (h) kinase activity assay; format: biochemical
Sequence of Aurora-B (h) (Q96GD4 whole entry): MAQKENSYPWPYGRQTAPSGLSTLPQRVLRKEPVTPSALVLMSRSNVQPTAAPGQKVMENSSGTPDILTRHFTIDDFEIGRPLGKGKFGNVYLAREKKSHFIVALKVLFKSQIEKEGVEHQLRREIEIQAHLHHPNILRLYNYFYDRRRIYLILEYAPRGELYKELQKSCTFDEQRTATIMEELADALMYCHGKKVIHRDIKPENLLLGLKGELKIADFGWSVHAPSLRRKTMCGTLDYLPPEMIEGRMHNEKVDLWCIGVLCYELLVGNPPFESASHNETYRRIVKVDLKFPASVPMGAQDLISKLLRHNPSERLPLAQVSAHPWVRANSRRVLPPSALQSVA
Protocol: as §6
Aurora-B (h) is incubated with 8 mM MOPS pH 7.0, 0.2 mM EDTA, 30 μM AKRRRLSSLRA, 10 mM MgAcetate and [γ-^33PATP] (specific activity approx. 500 cpm/pmol, concentration as required). The reaction is initiated by the addition of the MgATP mix. After incubation for 40 minutes at room temperature, the reaction is stopped by the addition of a 3% phosphoric acid solution. 10 μL of the reaction is then spotted onto a P30 filtermat and washed three times for 5 minutes in 75 mM phosphoric acid and once in methanol prior to drying and scintillation counting.
as §8

| Compound | half-life at 5 μM [1] [min] | CLint scaled at 5 μM [1] [mL/min/kg] | half-life at 5 μM [2] [min] | CLint scaled at 5 μM [2] [mL/min/kg] | Clearance (CL) after iv dosing [3] [mL/min/kg] | F [3] [%] | AUC(0-t) [3] [ng·h/mL] | half-life [3] [min] | Vd [3] [L/kg] | IC50 (JAK1 (h)) [nM] | IC50 (Aurora-A (h)) [nM] | IC50 (Aurora-B (h)) [nM] |
| --- | --- | --- | --- | --- | --- | --- | --- | --- | --- | --- | --- | --- |
| CC(=O)N1CC2CC(Nc3nc(Nc4cnn(CC(C)(C)O)c4)ncc3Cl)CC2C1 (stereo not shown) [Ex. 1, 1-(5-((5-chloro-2-((1-(2-hydroxy-2-methylpropyl)-1H-pyrazol-4-yl)amino)pyrimidin-4-yl)amino)hexahydrocyclopenta[c]pyrrol-2(1H)-yl)ethanone] | 148 | 11.7 | 112 | 22.2 | 46.2 | 61.7 | 360 | 38.4 | 1.53 | 10 | 58 |  |
| CC(C)(O)Cn1cc(Nc2ncc(Cl)c(NC3CC4CN(C(=O)CC#N)CC4C3)n2)cn1 (stereo not shown) [Ex. 2, 3-(5-((5-chloro-2-((1-(2-hydroxy-2-methylpropyl)-1H-pyrazol-4-yl)amino)pyrimidin-4-yl)amino)hexahydrocyclopenta[c]pyrrol-2(1H)-yl)-3-oxopropanenitrile] | 106 | 16.4 | 107 | 23.3 |  |  |  |  |  | 2 | 28 |  |
| Cn1cc(Nc2ncc(Cl)c(NC3CC4CN(C(=O)CC5CC5)CC4C3)n2)cn1 (stereo not shown) [Ex. 12, 1-(5-((5-chloro-2-((1-methyl-1H-pyrazol-4-yl)amino)pyrimidin-4-yl)amino)hexahydrocyclopenta[c]pyrrol-2(1H)-yl)-2-cyclopropylethanone] |  |  |  |  | 60.2 | 30.5 | 278 | 14.4 | 0.99 | 12 | 17 |  |
| Cn1cc(Nc2ncc(Cl)c(NC3CC4CN(C(=O)C5CC5)CC4C3)n2)cn1 (stereo not shown) [Ex. 14, (5-((5-chloro-2-((1-methyl-1H-pyrazol-4-yl)amino)pyrimidin-4-yl)amino)hexahydrocyclopenta[c]pyrrol-2(1H)-yl)(cyclopropyl)methanone] | 44.2 | 39.4 | 3.33 | 745 |  |  |  |  |  | 6 | 21 |  |
| Cn1cc(Nc2ncc(Cl)c(NC3CC4CN(CC(C)(C)O)CC4C3)n2)cn1 (stereo not shown) [Ex. 16, 1-(5-((5-chloro-2-((1-methyl-1H-pyrazol-4-yl)amino)pyrimidin-4-yl)amino)hexahydrocyclopenta[c]pyrrol-2(1H)-yl)-2-methylpropan-2-ol] | 210 | 8.27 | 6.28 | 395 |  |  |  |  |  | 32 |  |  |
| Cn1cc(Nc2ncc(Cl)c(NC3CC4CN(S(=O)(=O)CC5CC5)CC4C3)n2)cn1 (stereo not shown) [Ex. 17, 5-chloro-N^4-(2-((cyclopropylmethyl)sulfonyl)octahydrocyclopenta[c]pyrrol-5-yl)-N^2-(1-methyl-1H-pyrazol-4-yl)pyrimidine-2,4-diamine] | 35.7 | 48.6 | 7.15 | 347 | 54.2 | 37.3 | 308 | 17.4 | 1.44 |  | 6 |  |
| Cn1cc(Nc2ncc(Cl)c(NC3CC4CN(C(=O)NC5CC5)CC4C3)n2)cn1 (stereo not shown) [Ex. 19, 5-((5-chloro-2-((1-methyl-1H-pyrazol-4-yl)amino)pyrimidin-4-yl)amino)-N-cyclopropylhexahydrocyclopenta[c]pyrrole-2(1H)-carboxamide] | 178 | 9.78 | 96.9 | 25.6 | 63.7 | 24.0 | 263 | 21 | 0.95 | 23 | 8 | 1 |
| CC(O)Cn1cc(Nc2ncc(Cl)c(NC3CC4CN(S(=O)(=O)C5CC5)CC4C3)n2)cn1 (stereo not shown) [Ex. 44, 1-(4-((5-chloro-4-((2-(cyclopropylsulfonyl)octahydrocyclopenta[c]pyrrol-5-yl)amino)pyrimidin-2-yl)amino)-1H-pyrazol-1-yl)propan-2-ol] |  |  |  |  | 60.8 | 31.4 | 276 | 51.6 | 1.75 |  | 5 | 1 |
| CCNS(=O)(=O)N1CC2CC(Nc3nc(Nc4cnn(CC(C)O)c4)ncc3Cl)CC2C1 (stereo not shown) [Ex. 45, 5-((5-chloro-2-((1-(2-hydroxypropyl)-1H-pyrazol-4-yl)amino)pyrimidin-4-yl)amino)-N-ethylhexahydrocyclopenta[c]pyrrole-2(1H)-sulfonamide] |  |  |  |  | 62.3 | 27.1 | 267 | 39.6 | 1.97 |  | 5 | 0.8 |
| CC(O)Cn1cc(Nc2ncc(Cl)c(NC3CC4CN(S(=O)(=O)CC5CC5)CC4C3)n2)cn1 (stereo not shown) [Ex. 46, 1-(4-((5-chloro-4-((2-((cyclopropylmethyl)sulfonyl)octahydrocyclopenta[c]pyrrol-5-yl)amino)pyrimidin-2-yl)amino)-1H-pyrazol-1-yl)propan-2-ol] |  |  |  |  | 60.7 | 24.9 | 277 | 15.6 | 1.13 |  | 10 | 1 |
| CC(O)Cn1cc(Nc2ncc(Cl)c(NC3CC4CN(S(=O)(=O)NC5CC5)CC4C3)n2)cn1 (stereo not shown) [Ex. 47, 5-((5-chloro-2-((1-(2-hydroxypropyl)-1H-pyrazol-4-yl)amino)pyrimidin-4-yl)amino)-N-cyclopropylhexahydrocyclopenta[c]pyrrole-2(1H)-sulfonamide] |  |  |  |  | 69.3 | 22.4 | 239 | 42.6 | 2.37 |  | 7 | 0.6 |
